Test results reported in US20180369426A1, “COMPOSITIONS COMPRISING FLUORESCENT DYES ASSOCIATED WITH VIRAL COMPONENTS FOR NERVE IMAGING” (priority 2008, published 2018).

Tested on: footpad nerves
Assay: Mouse footpad injection, ICG fluorescence imaging of nerves (Example 3)
Assay type: in vivo
Settings: 10 μL into footpad, imaged 2 hours after injection, back dissected (FIG. 3A)
Protocol: Example 3 is a comparison of imaging with a fluorescent dye alone versus a fluorescent dye bound to the virus. Unless otherwise specified, all images are digital images obtained from a CCD camera.
A mouse ([…]) was briefly anesthetized by halothane inhalation. The right footpad of the mouse was injected with 10 μL of ICG, phosphate buffered saline (PBS) and a virus mutant, HSV-2 ΔRR (“ICG/PBS/HSV-2 ΔRR mixture”). The left footpad was injected with 10 μl of ICG/PBS mixture as a control. The same concentration of ICG was present in both mixtures.
2 hours after footpad injections, the mouse was anesthetized and then euthanized with interperitoneal injection of sodium pentobarbital. ICG fluorescence images were acquired first of the intact mouse and then at various stages of dissection.

## CC1(C)C(/C=C/C=C/C=C/C=C2\N(CCCCS(=O)(=O)O)c3ccc4ccccc4c3C2(C)C)=[N+](CCCCS(=O)(=O)[O-])c2ccc3ccccc3c21 [ICG, indocyanine green]
  extent of fluorescence after footpad injection: limited to the left foot itself
